Measurements published in ChEMBL document CHEMBL2069296, “A novel series of G-quadruplex ligands with selectivity for HIF-expressing osteosarcoma and renal cancer cell lines” (Bioorg Med Chem Lett, 2012).
Activity calls are given as the source filed them. The rule behind the calls is not given here.

What was measured:
HOS = experiment: Antiproliferative activity against human HOS cells after 96 hrs by SRB assay; format: functional, cell-based
MG-63 = experiment: Antiproliferative activity against human MG63 cells after 96 hrs by SRB assay; format: functional, cell-based; conditions: MG-63, 96 h
HOS-TE85 = experiment: Antiproliferative activity against human MNNG-HOS cells after 96 hrs by SRB assay; format: functional, cell-based; conditions: HOS-TE85, 96 h
U2OS = experiment: Antiproliferative activity against human U2OS cells after 96 hrs by SRB assay; format: functional, cell-based
SAOS-2 = experiment: Antiproliferative activity against human Saos2 cells after 96 hrs by SRB assay; format: functional, cell-based; conditions: SAOS-2, 96 h
OST = experiment: Antiproliferative activity against human OST cells after 96 hrs by SRB assay; format: functional, cell-based
[1] = Antiproliferative activity against human TC71 cells after 96 hrs by SRB assay; format: functional, cell-based; conditions: TC-71, 96 h
[2] = Antiproliferative activity against human TC32 cells after 96 hrs by SRB assay; format: functional, cell-based; conditions: TC-32, 96 h
MCF7 = experiment: Antiproliferative activity against human MCF7 cells after 96 hrs by SRB assay; format: functional, cell-based; conditions: MCF7, 96 h
A549 = experiment: Antiproliferative activity against human A549 cells after 96 hrs by SRB assay; format: functional, cell-based; conditions: A549, 96 h
MIA PaCa-2 = experiment: Antiproliferative activity against human MIAPaCa2 cells after 96 hrs by SRB assay; format: functional, cell-based; conditions: MIA PaCa-2, 96 h
PANC-1 = experiment: Antiproliferative activity against human PANC1 cells after 96 hrs by SRB assay; format: functional, cell-based; conditions: PANC-1, 96 h
HPAC = experiment: Antiproliferative activity against human HPAC cells after 96 hrs by SRB assay; format: functional, cell-based
PC-3 = experiment: Antiproliferative activity against human PC3 cells after 96 hrs by SRB assay; format: functional, cell-based; conditions: PC-3, 96 h
[3] = Antiproliferative activity against human 786-O cells after 96 hrs by SRB assay; format: functional, cell-based; conditions: 786-0, 96 h
A498 = experiment: Antiproliferative activity against human A498 cells after 96 hrs by SRB assay; format: functional, cell-based; conditions: A498, 96 h
[4] = Antiproliferative activity against human RCC4 cells after 96 hrs by SRB assay; format: functional, cell-based; conditions: RCC4, 96 h
[5] = Antiproliferative activity against human RCC4/VHL cells after 96 hrs by SRB assay; format: functional, cell-based
[6] = Antiproliferative activity against human TC135 cells after 96 hrs by SRB assay; format: functional, cell-based; conditions: TC135, 96 h
WI-38 = experiment: Cytotoxicity against human WI38 after 96 hrs by SRB assay; format: cell-based; conditions: WI-38, 96 h
Nucleic Acid [7] = experiment: Binding affinity to HIF1alpha DNA by surface plasmon resonance assay; format: nucleic-acid assay
Nucleic Acid [8] = experiment: Binding affinity to HIF2alpha DNA by surface plasmon resonance assay; format: nucleic-acid assay
Nucleic Acid [9] = experiment: Binding affinity to 5'-GGGGCGGGCACGGGGCGGG-3' DNA by surface plasmon resonance; format: nucleic-acid assay

SMILES	IC50 (HOS) [µM]	IC50 (MG-63) [µM]	IC50 (HOS-TE85) [µM]	IC50 (U2OS) [µM]	IC50 (SAOS-2) [µM]	IC50 (OST) [µM]	IC50 [1] [µM]	IC50 [2] [µM]	IC50 (MCF7) [µM]	IC50 (A549) [µM]	IC50 (MIA PaCa-2) [µM]	IC50 (PANC-1) [µM]	IC50 (HPAC) [µM]	IC50 (PC-3) [µM]	IC50 [3] [µM]	IC50 (A498) [µM]	IC50 [4] [µM]	IC50 [5] [µM]	IC50 [6] [µM]	IC50 (WI-38) [µM]	also measured
O=C(CCN1CCCC1)Nc1ccc(-n2cc(-c3ccc4ccc(-c5cn(-c6ccc(NC(=O)CCN7CCCC7)cc6)nn5)cc4c3)nn2)cc1	0.6	2.8	2.1	2.2	1.8	0.9	16	0.7	8.1	17	7.2	7.8	1.9	7.1	6.5	1.9	2.5	2.6	2.2	3.9	
O=C(CCN1CCCC1)Nc1cccc(-n2cc(-c3ccc4ccc(-c5cn(-c6cccc(NC(=O)CCN7CCCC7)c6)nn5)cc4c3)nn2)c1	7.1	> 100	2.9	13	2.7	2.2	8.9	1.9	30	76	11	7.1	8	9.4	5.85	7.5	4.2	6.8	2.5	18	
CCN(CC)CC(=O)Nc1ccc(-n2cc(-c3ccc4ccc(-c5cn(-c6ccc(NC(=O)CN(CC)CC)cc6)nn5)cc4c3)nn2)cc1	75	81	25	22	95	37	> 100	29	100	> 100	> 100	> 100	52	> 100	23	8	22	26	23	9	K (Nucleic Acid [7]): 1.25 ×10⁷ /M; K (Nucleic Acid [8]): 0.15 ×10⁷ /M; K (Nucleic Acid [9]): inactive
O=C(CN1CCCC1)Nc1cccc(-n2cc(-c3ccc4ccc(-c5cn(-c6cccc(NC(=O)CN7CCCC7)c6)nn5)cc4c3)nn2)c1	2	16	9	22	5.8	7.1	75	3	> 100	72	> 100	29	9	25	6.9	3.1	3.2	2.4	11	17	
